Data reported in patent US20200297671A1, “METHODS OF AVOIDING EXCIPIENT-BASED ADVERSE EFFECTS AND OF EXPLOITING BIOLOGICAL PROPERTIES OF GRAS COMPOUNDS” (MASSACHUSETTS INSTITUTE OF TECHNOLOGY, priority 2019, published 2020).

Legend:
P-gp = P-gp in vivo experiment (warfarin plasma concentration); design: species or system BALB/c mice; settings: mice
Protocol: A suspension of vitamin A palmitate in 10% DMSO PBS or 10% DMSO PBS buffer control were administered orally to five female BALB/c mice at a dose of 500 mg/kg 15 minutes prior to treatment. Mice were then treated orally with warfarin 20 mg/kg. Blood was sampled after 30 minutes of oral warfarin administration. Warfarin plasma concentrations were determined using LCMS.

patients = settings: cited from earlier work
Human UGT2B7 = molecular target: T1, Human UGT2B7 (Homo sapiens, UniProt P16662); assay: UGT2B7 inhibition assay (Corning Supersomes, Biovision UGT activity kit); format: biochemical
T1 construct: purchased Corning
T1 sequence (P16662 24-529): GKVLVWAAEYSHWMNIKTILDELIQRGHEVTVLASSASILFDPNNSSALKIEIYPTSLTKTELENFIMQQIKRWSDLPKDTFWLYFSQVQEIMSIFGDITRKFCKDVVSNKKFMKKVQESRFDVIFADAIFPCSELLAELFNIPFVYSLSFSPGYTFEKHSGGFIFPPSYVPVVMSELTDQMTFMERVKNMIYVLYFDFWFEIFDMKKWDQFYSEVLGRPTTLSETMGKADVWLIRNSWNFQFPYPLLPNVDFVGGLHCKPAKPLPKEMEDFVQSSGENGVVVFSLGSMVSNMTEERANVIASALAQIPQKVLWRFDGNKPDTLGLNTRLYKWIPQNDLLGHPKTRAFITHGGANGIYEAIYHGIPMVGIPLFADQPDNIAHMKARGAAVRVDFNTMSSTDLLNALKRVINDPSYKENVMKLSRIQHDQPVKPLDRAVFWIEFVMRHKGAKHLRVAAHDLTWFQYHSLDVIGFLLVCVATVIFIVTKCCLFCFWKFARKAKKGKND
Protocol: UGT2B7 inhibition was measured using Corning® Supersomes™ Human UGT2B7. The inhibition of UGT2B7 was measured using the commercially-available Biovision UGT activity screening kit as previously described. Briefly, 0.1 mg/mL microsomes were mixed with Alamethicin for pore-formation and a proprietary UGT ligand that loses fluorescence after glucuronidation (Biovision). Plates were incubated for 5 minutes at RT and protected from light before the enzymatic reaction was initiated through the addition of UDPGA. […] Diclofenac (1 mM in PBS 1% DMSO) served as a positive inhibitor control.

mice = settings: cited from earlier work
UGT = UGT tissue assay (liver lysate); format: biochemical, porcine; settings: pig liver lysate, 500 μM
Protocol: Compound mixtures were prepared at 500 μM. Freshly extracted porcine liver was homogenized using a tissue homogenizer. The sample was separated using centrifugation and the supernatant was used as a test sample. Two independent experiments with two different liver extracts were performed as described for the microsomes.

## CCCCCCCCCCCCCCCC(=O)OC/C=C(C)/C=C/C=C(C)/C=C/C1=C(C)CCCC1(C)C [vitamin A palmitate]
P-gp
  systemic warfarin after oral delivery (FIG. 23): induces an increase of systemic warfarin
P-gp; 500 mg/kg oral 15 minutes before warfarin 20 mg/kg oral, blood after 30 minutes
  increase of oral absorption of warfarin: 31%

## O=C([O-])C1=NN(c2ccc(S(=O)(=O)[O-])cc2)C(=O)C1N=Nc1ccc(S(=O)(=O)[O-])cc1.[Na+].[Na+].[Na+] (centres unmarked) [tartrazine]
patients; tartrazine-containing versus tartrazine-free medications, all patients
  patients with adverse symptoms associated with tartrazine content: about 4%

## OC[C@H]1O[C@@H](O[C@H]2[C@H](O)[C@@H](O)C(O)O[C@@H]2CO)[C@H](O)[C@@H](O)[C@H]1O (some centres unmarked) [lactose]
patients; severe cases of lactose intolerance
  amount affecting individuals: less than 200 mg

## CC(C)C1=CC2=CC[C@@H]3[C@](C)(CCC[C@@]3(C)C(=O)O)[C@H]2CC1 [abietic acid]
Human UGT2B7
  inhibition of UGT2B7 activity in microsomes (FIG. 18): can inhibit UGT2B7 activity
Human UGT2B7; functional in vitro assay, microsomes, 30 minutes
  IC50: 2200 ± 300 nM
mice
  toxicity in mice: harmless in mice
UGT
  inhibition of UGT activity ex vivo: successfully inhibited UGT activity
